US10509036B2, “Methods of selecting and isolating cancer stem cells” (The Regents of the University of California, priority 2014, dated 2019)

Test system: neuroblastoma cells (low NBDG and high NBDG)
Test: MTS assay (CellTiter 96 AQueous cell proliferation assay), low NBDG versus high NBDG neuroblastoma cells
Assay type: cell-based, human

| SMILES | resistance of low NBDG cells to the chemotherapy drug compared with high NBDG cells (MTS assay) |
| --- | --- |
| COc1cccc2c1C(=O)c1c(O)c3c(c(O)c1C2=O)C[C@@](O)(C(=O)CO)C[C@@H]3O[C@H]1C[C@H](N)[C@H](O)[C@H](C)O1 [doxorubicin] | more resistant |
| CC[C@]1(O)C[C@H]2CN(CCc3c([nH]c4ccccc34)[C@@](C(=O)OC)(c3cc4c(cc3OC)N(C=O)[C@H]3[C@@](O)(C(=O)OC)[C@H](OC(C)=O)[C@]5(CC)C=CCN6CC[C@]43[C@@H]65)C2)C1 [vincristine] | more resistant |
